Read-outs that look alike come from different tables or passages of the source.
How the values were obtained:
Format in all cases: binding
[1] = molecular target: T1, HeLa cell extract proteins (Homo sapiens, UniProt Q8NEZ5)
T1 construct: endogenous in cells; host or cells: HeLa cell extract
T1 sequence (Q8NEZ5 1-403): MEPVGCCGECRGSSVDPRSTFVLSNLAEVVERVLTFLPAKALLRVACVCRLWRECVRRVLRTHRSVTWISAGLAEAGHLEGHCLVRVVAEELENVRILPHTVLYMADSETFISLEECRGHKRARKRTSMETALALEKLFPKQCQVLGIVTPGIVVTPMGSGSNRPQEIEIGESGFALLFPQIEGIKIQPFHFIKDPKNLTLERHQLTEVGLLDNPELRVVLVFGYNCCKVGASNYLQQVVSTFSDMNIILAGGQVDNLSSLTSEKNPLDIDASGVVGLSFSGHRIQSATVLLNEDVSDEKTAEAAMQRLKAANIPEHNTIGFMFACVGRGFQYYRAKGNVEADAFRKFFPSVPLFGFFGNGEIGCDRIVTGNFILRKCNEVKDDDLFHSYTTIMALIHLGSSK

[2] = molecular target: T2, HeLa cell extract proteins (Homo sapiens, UniProt P11142)
T2 construct: endogenous in cells; host or cells: HeLa cell extract

[3] = molecular target: T3, HeLa cell extract proteins (Homo sapiens, UniProt Q14974)
T3 construct: endogenous in cells; host or cells: HeLa cell extract

[4] = molecular target: T4, HeLa cell extract proteins (Homo sapiens, UniProt P22695)
T4 construct: endogenous in cells; host or cells: HeLa cell extract
T4 sequence (P22695 15-453): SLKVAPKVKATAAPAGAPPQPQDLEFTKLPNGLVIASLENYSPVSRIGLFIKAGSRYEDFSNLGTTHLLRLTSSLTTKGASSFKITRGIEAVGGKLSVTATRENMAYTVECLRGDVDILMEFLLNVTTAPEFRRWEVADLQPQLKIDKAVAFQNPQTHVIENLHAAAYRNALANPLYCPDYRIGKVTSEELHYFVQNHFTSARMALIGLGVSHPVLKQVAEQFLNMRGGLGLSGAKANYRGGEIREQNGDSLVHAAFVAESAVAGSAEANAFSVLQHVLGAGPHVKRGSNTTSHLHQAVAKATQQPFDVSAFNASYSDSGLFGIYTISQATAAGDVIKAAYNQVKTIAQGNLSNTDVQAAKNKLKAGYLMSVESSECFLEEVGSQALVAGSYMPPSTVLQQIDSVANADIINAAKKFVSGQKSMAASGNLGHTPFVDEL

[5] = molecular target: T5, HeLa cell extract proteins (Homo sapiens, UniProt O75390)
T5 construct: endogenous in cells; host or cells: HeLa cell extract
T5 sequence (O75390 28-466): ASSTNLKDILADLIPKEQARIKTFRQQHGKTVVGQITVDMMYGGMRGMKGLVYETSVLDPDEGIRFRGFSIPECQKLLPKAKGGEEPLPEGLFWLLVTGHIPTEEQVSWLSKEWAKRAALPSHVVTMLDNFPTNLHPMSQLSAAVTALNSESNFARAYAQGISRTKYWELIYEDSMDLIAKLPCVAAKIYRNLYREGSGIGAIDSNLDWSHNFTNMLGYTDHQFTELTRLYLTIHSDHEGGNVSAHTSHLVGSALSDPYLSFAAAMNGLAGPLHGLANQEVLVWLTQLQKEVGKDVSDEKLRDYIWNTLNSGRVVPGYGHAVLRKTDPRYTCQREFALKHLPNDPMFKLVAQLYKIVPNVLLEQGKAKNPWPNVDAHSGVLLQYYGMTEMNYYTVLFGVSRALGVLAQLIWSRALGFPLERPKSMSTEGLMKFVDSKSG

[6] = molecular target: T6, HeLa cell extract proteins (Homo sapiens, UniProt P23396)
T6 construct: endogenous in cells; host or cells: HeLa cell extract

[7] = molecular target: T7, HeLa cell extract proteins (Homo sapiens, UniProt P23921)
T7 construct: endogenous in cells; host or cells: HeLa cell extract
T7 sequence (P23921 1-792): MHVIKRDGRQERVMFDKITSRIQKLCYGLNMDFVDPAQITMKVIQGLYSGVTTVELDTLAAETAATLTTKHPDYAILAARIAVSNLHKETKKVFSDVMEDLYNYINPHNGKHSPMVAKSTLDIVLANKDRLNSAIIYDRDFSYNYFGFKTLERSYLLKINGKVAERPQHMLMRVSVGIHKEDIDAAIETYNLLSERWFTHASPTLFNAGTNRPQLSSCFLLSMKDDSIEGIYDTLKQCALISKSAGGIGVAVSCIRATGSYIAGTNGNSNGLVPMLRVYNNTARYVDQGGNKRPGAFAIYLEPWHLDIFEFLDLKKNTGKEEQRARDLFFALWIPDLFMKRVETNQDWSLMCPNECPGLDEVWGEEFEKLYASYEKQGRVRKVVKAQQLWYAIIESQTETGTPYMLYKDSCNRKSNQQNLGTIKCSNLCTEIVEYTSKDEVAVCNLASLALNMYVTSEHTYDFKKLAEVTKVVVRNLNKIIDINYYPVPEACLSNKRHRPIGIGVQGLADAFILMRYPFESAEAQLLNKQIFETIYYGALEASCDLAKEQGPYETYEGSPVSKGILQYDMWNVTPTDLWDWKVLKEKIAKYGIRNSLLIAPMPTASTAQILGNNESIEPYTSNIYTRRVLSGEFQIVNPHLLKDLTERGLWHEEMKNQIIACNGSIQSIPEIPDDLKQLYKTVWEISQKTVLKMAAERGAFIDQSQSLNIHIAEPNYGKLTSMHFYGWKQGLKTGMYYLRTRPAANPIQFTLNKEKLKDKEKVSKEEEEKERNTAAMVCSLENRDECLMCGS

[8] = molecular target: T8, HeLa cell extract proteins (Homo sapiens, UniProt P62258)
T8 construct: endogenous in cells; host or cells: HeLa cell extract
T8 sequence (P62258 1-255): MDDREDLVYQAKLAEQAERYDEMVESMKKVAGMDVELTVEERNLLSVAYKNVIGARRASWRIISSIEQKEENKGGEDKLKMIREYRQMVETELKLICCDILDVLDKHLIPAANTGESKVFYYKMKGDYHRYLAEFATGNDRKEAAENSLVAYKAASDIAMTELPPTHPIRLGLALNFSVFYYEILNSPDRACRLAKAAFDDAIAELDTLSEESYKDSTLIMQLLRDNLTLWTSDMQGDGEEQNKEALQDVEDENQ

[9] = molecular target: T9, HeLa cell extract proteins (Homo sapiens, UniProt P07900)
T9 construct: endogenous in cells; host or cells: HeLa cell extract

[10] = molecular target: T10, HeLa cell extract proteins (Homo sapiens, UniProt P30086)
T10 construct: endogenous in cells; host or cells: HeLa cell extract

[11] = HeLa, protein HSP90AA1 (HEAT SHOCK PROTEIN 90KDA ALPHA (CYTOSOLIC), CLASS A MEMBER 1 ISOFORM 1.)

T2 sequence (P11142 whole entry): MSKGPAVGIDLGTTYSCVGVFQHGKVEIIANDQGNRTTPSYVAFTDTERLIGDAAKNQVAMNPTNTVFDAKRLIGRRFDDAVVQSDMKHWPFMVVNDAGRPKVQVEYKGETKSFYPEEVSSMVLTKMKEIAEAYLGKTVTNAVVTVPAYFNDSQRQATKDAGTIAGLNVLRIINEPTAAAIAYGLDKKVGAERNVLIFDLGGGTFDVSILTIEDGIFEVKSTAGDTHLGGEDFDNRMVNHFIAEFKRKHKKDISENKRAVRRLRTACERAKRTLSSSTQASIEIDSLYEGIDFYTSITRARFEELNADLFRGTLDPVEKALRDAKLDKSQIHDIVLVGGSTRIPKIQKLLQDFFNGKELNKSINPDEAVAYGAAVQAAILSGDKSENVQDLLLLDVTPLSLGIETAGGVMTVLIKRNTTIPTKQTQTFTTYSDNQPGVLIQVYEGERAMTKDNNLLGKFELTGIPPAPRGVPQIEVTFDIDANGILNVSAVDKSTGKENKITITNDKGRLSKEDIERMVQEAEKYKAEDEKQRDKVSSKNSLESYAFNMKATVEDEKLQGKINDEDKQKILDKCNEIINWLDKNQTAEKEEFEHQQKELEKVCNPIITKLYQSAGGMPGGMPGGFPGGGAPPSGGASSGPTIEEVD
T10 sequence (P30086 whole entry): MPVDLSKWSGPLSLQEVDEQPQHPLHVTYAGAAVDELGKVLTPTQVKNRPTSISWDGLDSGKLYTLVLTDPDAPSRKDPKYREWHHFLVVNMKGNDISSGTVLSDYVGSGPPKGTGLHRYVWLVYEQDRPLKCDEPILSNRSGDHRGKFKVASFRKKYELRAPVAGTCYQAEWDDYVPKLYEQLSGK
T3 sequence (Q14974 whole entry): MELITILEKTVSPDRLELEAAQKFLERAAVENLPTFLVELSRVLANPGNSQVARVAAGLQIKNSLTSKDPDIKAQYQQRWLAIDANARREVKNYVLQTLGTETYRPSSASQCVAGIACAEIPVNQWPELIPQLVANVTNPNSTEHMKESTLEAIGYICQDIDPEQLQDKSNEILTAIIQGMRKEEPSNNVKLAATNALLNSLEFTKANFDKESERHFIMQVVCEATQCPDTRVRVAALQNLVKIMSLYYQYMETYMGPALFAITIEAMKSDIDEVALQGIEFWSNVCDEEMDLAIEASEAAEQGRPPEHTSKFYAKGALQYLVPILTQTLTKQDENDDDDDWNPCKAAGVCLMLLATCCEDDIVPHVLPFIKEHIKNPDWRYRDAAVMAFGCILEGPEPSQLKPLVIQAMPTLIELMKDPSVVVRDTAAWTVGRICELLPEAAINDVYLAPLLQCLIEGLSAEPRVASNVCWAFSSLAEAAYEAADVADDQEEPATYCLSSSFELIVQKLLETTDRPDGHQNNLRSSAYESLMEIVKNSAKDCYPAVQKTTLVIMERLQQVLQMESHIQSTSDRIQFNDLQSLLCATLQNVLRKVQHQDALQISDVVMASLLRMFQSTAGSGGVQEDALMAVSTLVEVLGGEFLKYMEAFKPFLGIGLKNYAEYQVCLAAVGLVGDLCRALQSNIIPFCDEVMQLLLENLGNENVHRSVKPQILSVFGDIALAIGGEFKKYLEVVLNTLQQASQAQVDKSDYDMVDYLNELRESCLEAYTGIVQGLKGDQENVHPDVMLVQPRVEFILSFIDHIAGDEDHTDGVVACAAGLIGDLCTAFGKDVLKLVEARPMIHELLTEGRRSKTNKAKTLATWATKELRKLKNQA

Compound	fold changes relative to vehicle control ([1]; HeLa, protein FBXO22)	fold changes relative to vehicle control ([2]; HeLa, captured protein HSPA8)	fold changes relative to vehicle control ([3]; HeLa, protein KPNB1)	fold changes relative to vehicle control ([4]; HeLa, protein UQCRC2)	fold changes relative to vehicle control ([5]; HeLa, captured protein CS)	fold changes relative to vehicle control ([6]; HeLa, captured protein RPS3)	fold changes relative to vehicle control ([7]; HeLa, protein RRM1)	fold changes relative to vehicle control ([8]; HeLa, protein YWHAE)	fold changes relative to vehicle control ([9]; HeLa, protein HSP90AA1)	fold changes relative to vehicle control ([10]; HeLa, protein PEBP1)	fold changes relative to vehicle control ([1]; captured protein FBXO22, HeLa)	fold changes relative to vehicle control ([2]; protein HSPA8, HeLa)	fold changes relative to vehicle control ([3]; protein KPNB1, HeLa)	fold changes relative to vehicle control ([5]; protein CS, HeLa)	fold changes relative to vehicle control ([6]; captured protein RPS3, HeLa)	fold changes relative to vehicle control ([7]; protein RRM1, HeLa)	fold changes relative to vehicle control ([8]; protein YWHAE, HeLa)	fold changes relative to vehicle control [9, 11]	fold changes relative to vehicle control ([10]; protein PEBP1, HeLa)	also measured
Nc1nc2c(c(=O)[nH]1)N(C=O)C(CNc1ccc(C(=O)N[C@@H](CCC(=O)O)C(=O)O)cc1)CN2 (stereo partly shown) [LEU, leucovorin]	1	1.07	0.99	0.9	1.05	1.08	0.99	1.01	1.06	0.89	–	–	–	–	–	–	–	–	–	–
Nc1nc2[nH]cc(CCc3ccc(C(=O)N[C@@H](CCC(=O)O)C(=O)O)cc3)c2c(=O)[nH]1 [PTX, pemetrexed]	–	–	–	–	–	–	–	–	–	–	–	–	–	–	–	–	–	–	–	fold changes relative to vehicle control [1]: 1; fold changes relative to vehicle control [2]: 0.99; fold changes relative to vehicle control [3]: 1.06; fold changes relative to vehicle control [4]: 0.93; fold changes relative to vehicle control [5]: 1.2; fold changes relative to vehicle control [6]: 1.18; fold changes relative to vehicle control [7]: 1.05; fold changes relative to vehicle control [8]: 1.1; fold changes relative to vehicle control [9]: 1.13; fold changes relative to vehicle control [10]: 1.14
CCCCCCOc1ccc(Cc2cnc(N)nc2N)cc1 [compound 1]	–	–	–	0.97	–	–	–	–	–	–	0.89	0.99	1.09	1.38	1.08	1.05	1.37	1.4 fold	1.23	–
CCCCCCOc1cccc(Cc2cnc(N)nc2N)c1 [compound 2]	–	–	–	0.99	–	–	–	–	–	–	1.02	1.11	1.6	1.99	1.16	1.29	2	2.39 fold	1.9	–
Nc1nc2cccc(-c3ccccc3)c2n1Cc1ccc(Cl)c(Cl)c1 [compound 3]	–	–	–	1.01	–	–	–	–	–	–	0.96	1	0.97	1.02	1.03	0.89	1.03	0.94 fold	1.08	–
NCCOCCOCC(=O)Nc1nc2ncc(CNc3ccc(C(=O)NC(CCC(=O)O)C(=O)O)cc3)nc2c(=O)[nH]1 (stereo not shown) [compound 6]	0.82	0.98	1.13	0.95	1.32	1.11	1.06	1.17	1.32	1.42	–	–	–	–	–	–	–	–	–	–
NCCCNc1ccc(C(=O)NC(CCC(=O)O)C(=O)O)cc1 (stereo not shown) [compound 7]	0.98	0.99	0.89	1.03	1.3	1.15	0.96	1.03	0.92	1.07	–	–	–	–	–	–	–	–	–	–
